Activity calls are given as the source filed them. No cut-off for these calls is given here.
Experiments:
[1] = biological target: Transcriptional coactivator YAP1 (Homo sapiens) (UniProt P46937); test: Inhibition of YAP1 in human NCI-H1703 cells assessed as suppression of Sox2 mRNA expression at 5 to 10 uM incubated for 72 hrs by RT-PCR method; type: cell-based
NCI-H1650 [2] = test: Cytotoxicity in human NCI-H1650 cells assessed as reduction in cell viability at 0.5 to 20 uM incubated for 72 hrs by MTT assay; type: functional, cell-based
NCI-H1703 [3] = test: Effect on expression of Oct4 mRNA expression in human NCI-H1703 cells at 5 to 10 uM incubated for 72 hrs by RT-PCR method; type: cell-based; conditions: nci-h1703, 72 h
PC-9 = test: Cytotoxicity in gefitinib resistant human PC9 cells assessed as reduction in cell viability at 1 to 20 uM by MTT assay; type: functional, cell-based
[4] = biological target: Transcriptional coactivator YAP1 (Homo sapiens) (UniProt P46937); test: Inhibition of YAP1 in human NCI-H1650 cells assessed as suppression of PDK2 mRNA expression at 5 to 10 uM incubated for 72 hrs by RT-PCR method; type: cell-based
HUVEC = test: Inhibition of angiogenic tubule formation in HUVEC at 1 to 5 uM incubated for 18 to 24 hrs; type: functional, cell-based; conditions: Homo sapiens
A549 = test: Cytotoxicity in human A549 cells assessed as reduction in cell viability at 0.5 to 20 uM incubated for 72 hrs by MTT assay; type: functional, cell-based
NCI-H1703 [5] = test: Inhibition of YAP1/TEAD2 interaction in human NCI-H1703 cells assessed as suppression of CTGF mRNA expression at 5 to 10 uM incubated for 72 hrs by RT-PCR method; type: cell-based
[6] = biological target: Transcriptional coactivator YAP1 (Homo sapiens) (UniProt P46937); test: Inhibition of YAP1 in human NCI-H1703 cells assessed as suppression of vimentin mRNA expression at 5 to 10 uM incubated for 72 hrs by RT-PCR method; type: cell-based
NCI-H1650 [7] = test: Effect on expression of Oct4 mRNA expression in human NCI-H1650 cells at 5 to 10 uM incubated for 72 hrs by RT-PCR method; type: cell-based; conditions: nci-h1650, 72 h
[8] = biological target: Transcriptional coactivator YAP1 (Homo sapiens) (UniProt P46937); test: Inhibition of YAP1 in human NCI-H1650 cells assessed as reduction in Sox2 protein expression at 50 uM by luciferase reporter gene assay; type: cell-based
[9] = biological target: Transcriptional coactivator YAP1 (Homo sapiens) (UniProt P46937); test: Inhibition of YAP1 in human NCI-H146 cells assessed as suppression of HK2 mRNA expression at 5 to 10 uM incubated for 72 hrs by RT-PCR method; type: cell-based
[10] = biological target: Transcriptional coactivator YAP1 (Homo sapiens) (UniProt P46937); test: Inhibition of YAP1 in human NCI-H1703 cells assessed as suppression of PDK2 mRNA expression at 5 to 10 uM incubated for 72 hrs by RT-PCR method; type: cell-based
[11] = biological target: Transcriptional coactivator YAP1 (Homo sapiens) (UniProt P46937); test: Inhibition of YAP1 (unknown origin) assessed as disruption in YAP1/OCT4 interaction at 50 uM by cell based assay
[12] = biological target: Transcriptional coactivator YAP1 (Homo sapiens) (UniProt P46937); test: Inhibition of YAP1 in human NCI-H1650 cells assessed as suppression of Sox2 mRNA expression at 5 to 10 uM incubated for 72 hrs by RT-PCR method; type: cell-based
NCI-H1975 = test: Cytotoxicity in gefitinib and erlotinib resistant human NCI-H1975 cells assessed as reduction in cell viability at 1 to 10 uM incubated for 72 hrs by MTT assay; type: functional, cell-based
[13] = biological target: Transcriptional coactivator YAP1 (Homo sapiens) (UniProt P46937); test: Inhibition of YAP1 in human NCI-H1650 cells assessed as suppression of fibronectin mRNA expression at 5 to 10 uM incubated for 72 hrs by RT-PCR method; type: cell-based
[14] = biological target: Transcriptional coactivator YAP1 (Homo sapiens) (UniProt P46937); test: Inhibition of YAP1 in human NCI-H1703 cells assessed as suppression of fibronectin mRNA expression at 5 to 10 uM incubated for 72 hrs by RT-PCR method; type: cell-based
[15] = biological target: Transcriptional coactivator YAP1 (Homo sapiens) (UniProt P46937); test: Inhibition of YAP1 in human NCI-H146 cells assessed as suppression of PDK2 mRNA expression at 5 to 10 uM incubated for 72 hrs by RT-PCR method; type: cell-based
NCI-H1703 [16] = test: Cytotoxicity in human NCI-H1703 cells assessed as reduction in cell viability at 0.5 to 20 uM incubated for 96 hrs by MTT assay; type: functional, cell-based
[17] = biological target: Transcriptional coactivator YAP1 (Homo sapiens) (UniProt P46937); test: Inhibition of YAP1 in human NCI-H1650 cells assessed as suppression of HK2 mRNA expression at 5 to 10 uM incubated for 72 hrs by RT-PCR method; type: cell-based
[18] = biological target: Transcriptional coactivator YAP1 (Homo sapiens) (UniProt P46937); test: Inhibition of YAP1 in human A549 cells assessed as disruption in YAP1/OCT4 interaction at 5 uM incubated for 72 hrs by immunoprecipitation-Westem blot assay; type: cell-based
NCI-H1650 [19] = test: Inhibition of self-renewal capacity in cisplatin insensitive stem-like side-population cells of human NCI-H1650 cells assessed as reduction in number of spheres at 2 uM incubated for 5 days after 7 days cisplatin exposure by sphere formation assay; type: functional, cell-based
[20] = biological target: Transcriptional coactivator YAP1 (Homo sapiens) (UniProt P46937); test: Inhibition of YAP1 in human NCI-H1703 cells assessed as suppression of PD-L1 mRNA expression at 5 to 10 uM incubated for 72 hrs by RT-PCR method; type: cell-based
NCI-H146 [21] = test: Effect on expression of Oct4 mRNA expression in human NCI-H146 cells at 5 to 10 uM incubated for 72 hrs by RT-PCR method; type: cell-based; conditions: nci-h146, 72 h
Homo sapiens [22] = species: Homo sapiens; test: Cytotoxicity in human WM1366 cells assessed as reduction in cell viability at 0.5 to 20 uM incubated for 72 hrs by MTT assay; type: functional, cell-based
NCI-H1703 [23] = test: Effect on expression of Nanog mRNA expression in human NCI-H1703 cells at 5 to 10 uM incubated for 72 hrs by RT-PCR method; type: cell-based; conditions: nci-h1703, 72 h
NCI-H1650 [24] = test: Effect on expression of Nanog mRNA expression in human NCI-H1650 cells at 5 to 10 uM incubated for 72 hrs by RT-PCR method; type: cell-based; conditions: nci-h1650, 72 h
[25] = biological target: Transcriptional coactivator YAP1 (Homo sapiens) (UniProt P46937); test: Inhibition of YAP1 in human NCI-H1650 cells assessed as suppression of PD-L1 mRNA expression at 5 to 10 uM incubated for 72 hrs by RT-PCR method; type: cell-based
SK-MEL-5 = test: Cytotoxicity in human SK-MEL-5 cells assessed as reduction in cell viability at 0.5 to 20 uM incubated for 72 hrs by MTT assay; type: functional, cell-based
NCI-H146 [26] = test: Effect on expression of Nanog mRNA expression in human NCI-H146 cells at 5 to 10 uM incubated for 72 hrs by RT-PCR method; type: cell-based; conditions: nci-h146, 72 h
Homo sapiens [27] = species: Homo sapiens; test: Cytotoxicity in human 92-1 cells assessed as reduction in cell viability at 0.5 to 20 uM incubated for 72 hrs by MTT assay; type: functional, cell-based
NCI-H1650 [28] = test: Inhibition of self-renewal capacity in stem-like side-population cells of human NCI-H1650 cells assessed as reduction in number of spheres at 50 uM incubated for 10 days by sphere formation assay relative to control; type: functional; conditions: NCI-H1650, 240 h
[29] = biological target: Transcriptional coactivator YAP1 (Homo sapiens) (UniProt P46937); test: Inhibition of YAP1 in human NCI-H146 cells assessed as suppression of Sox2 mRNA expression at 5 to 10 uM incubated for 72 hrs by RT-PCR method; type: cell-based
NCI-H146 [30] = test: Inhibition of self-renewal capacity in methotrexate insensitive stem-like side-population cells of human NCI-H146 cells assessed as reduction in number of spheres at 2 uM incubated for 3 days after 7 days methotrexate exposure by sphere formation assay; type: functional
[31] = biological target: Transcriptional coactivator YAP1 (Homo sapiens) (UniProt P46937); test: Inhibition of YAP1 in human NCI-H1703 cells assessed as suppression of HK2 mRNA expression at 5 to 10 uM incubated for 72 hrs by RT-PCR method; type: cell-based
HCC827 = test: Cytotoxicity in erlotinib-resistant human HCC827 cells assessed as reduction in cell viability at 1 to 20 uM by MTT assay; type: functional, cell-based
NCI-H1650 [32] = test: Inhibition of YAP1/TEAD2 interaction in human NCI-H1650 cells assessed as suppression of CTGF mRNA expression at 5 to 10 uM incubated for 72 hrs by RT-PCR method; type: cell-based
[33] = biological target: Transcriptional coactivator YAP1 (Homo sapiens) (UniProt P46937); test: Inhibition of YAP1 in human NCI-H1650 cells assessed as suppression of vimentin mRNA expression at 5 to 10 uM incubated for 72 hrs by RT-PCR method; type: cell-based
NCI-H226 = test: Cytotoxicity in human NCI-H226 cells assessed as reduction in cell viability at 0.5 to 20 uM incubated for 96 hrs by MTT assay; type: functional, cell-based
[34] = biological target: Transcriptional coactivator YAP1 (Homo sapiens) (UniProt P46937); test: Inhibition of YAP1 in human NCI-H1650 cells assessed as disruption in YAP1/OCT4 interaction at 5 uM incubated for 72 hrs by immunoprecipitation-Westem blot assay; type: cell-based
[35] = biological target: Transcriptional coactivator YAP1 (Homo sapiens) (UniProt P46937); test: Inhibition of YAP1 (unknown origin) assessed as disruption in YAP1/OCT4 interaction at 5 uM by ELISA relative to control

Chain of Transcriptional coactivator YAP1 (Homo sapiens) (P46937 whole entry): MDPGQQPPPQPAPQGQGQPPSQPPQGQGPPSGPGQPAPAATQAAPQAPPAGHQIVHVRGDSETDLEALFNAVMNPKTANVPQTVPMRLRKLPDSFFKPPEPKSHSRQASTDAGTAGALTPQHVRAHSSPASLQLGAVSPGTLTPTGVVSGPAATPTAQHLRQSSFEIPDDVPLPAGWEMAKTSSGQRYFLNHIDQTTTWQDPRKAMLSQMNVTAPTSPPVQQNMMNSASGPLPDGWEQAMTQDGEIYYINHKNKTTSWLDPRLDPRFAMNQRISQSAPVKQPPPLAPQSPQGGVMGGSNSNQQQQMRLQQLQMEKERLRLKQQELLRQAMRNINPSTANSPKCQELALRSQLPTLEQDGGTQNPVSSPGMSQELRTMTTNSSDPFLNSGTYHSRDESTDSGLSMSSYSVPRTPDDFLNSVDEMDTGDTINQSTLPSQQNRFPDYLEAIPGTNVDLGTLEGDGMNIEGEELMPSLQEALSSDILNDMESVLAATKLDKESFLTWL

`O=C(CC1CCN(C(=O)CCc2ccccc2)CC1)N[C@@H](Cc1ccc(OCc2ccccc2)cc1)C(=O)O` was tested, and the inhibition [1] was “Active”, the Activity (NCI-H1650 [2]) was “Active” and the Activity (NCI-H1703 [3]) was “Non-Toxic”. The Activity (PC-9) was “Active”, the inhibition [4] was “Active” and the inhibition (HUVEC) was “Active”. The Activity (A549) was “Active”, the inhibition (NCI-H1703 [5]) was “inactive” and the inhibition [6] was “Active”. The Activity (NCI-H1650 [7]) was “Non-Toxic”, the inhibition [8] was 85.3% and the inhibition [9] was “Active”. The inhibition [10] was “Active”, the inhibition [11] was greater than 85% and the inhibition [12] was “Active”. For the same compound, the Activity (NCI-H1975) was “Active”, the inhibition [13] was “Active” and the inhibition [14] was “Active”. The inhibition [15] was “Active”, the Activity (NCI-H1703 [16]) was “Active” and the inhibition [17] was “Active”. For the same compound, the inhibition [18] was “Active”, the inhibition (NCI-H1650 [19]) was “Active” and the inhibition [20] was “Active”. For the same compound, the Activity (NCI-H146 [21]) was “Non-Toxic”, the Activity (Homo sapiens [22]) was “Active” and the Activity (NCI-H1703 [23]) was “Non-Toxic”. For the same compound, the Activity (NCI-H1650 [24]) was “Non-Toxic”, the inhibition [25] was “Active” and the Activity (SK-MEL-5) was “Active”. The Activity (NCI-H146 [26]) was “Non-Toxic”, the Activity (Homo sapiens [27]) was “Active” and the inhibition at 50 µM (NCI-H1650 [28]) was 72.6%. The inhibition [29] was “Active”, the inhibition (NCI-H146 [30]) was “Active” and the inhibition [31] was “Active”. The Activity (HCC827) was “Active”, the inhibition (NCI-H1650 [32]) was “inactive” and the inhibition [33] was “Active”. The Activity (NCI-H226) was “Active”, the inhibition [34] was “Active” and the inhibition [35] was 95%.

Reference: ChEMBL document CHEMBL4419178, “Yap1 inhibitors that target the interaction of yap1 with oct4” (2018)
